Experimental data reported in US7456288B2, “Heterocyclic compounds and methods of making and using thereof” (Reddy US Therapeutics, Inc., priority 2003, dated 2008).
Values belong to the compound of their own block, whether it stands above or below them.

Tests used:
MCP-1 = test: Glycated albumin-stimulated endothelial cell production of cytokine MCP-1 (ELISA); type: cell-based; conditions: read-out: % of inhibition of proinflammatory cytokine MCP-1; for inhibition at 5 µM: concentration 5 μM
Source text: (§1) The effectiveness of the compounds of the present invention in inhibiting glycated protein- and AGE-induced inflammation can be determined using the assays described herein and in U.S. Provisional Patent Application Ser. No. 60/259,306, which is incorporated by reference in herein its entirety. Such assays comprise measurement of the specific activity of biological components involved in a known cellular response. The assays provide a measurable response in which the activity of the compounds is determined. One aspect of the present invention comprises measurement of the effects of compounds on an inflammatory response by cells to the presence of a stimulating agent. Yet another aspect of the present invention includes an assay comprising endothelial cells that are stimulated by the addition of a glycated protein, the stimulating agent. The endothelial cells respond by producing specific cytokines. The amount of cytokines produced is determined by measurement protocols known to those skilled in the art. The compounds of the present invention are then added to the assay and the production of cytokines is measured. From the comparison of the assay without the compound with the assay with the compound, the biological effect of the compound can be determined. The compound may have an inhibitory effect, a stimulatory effect, or no effect at all. Compounds for treatment of inflammation include those that have an inhibitory effect.
Assays comprise endothelial cells that are stimulated in an inflammatory response by the presence of the glycated protein, glycated human serum albumin. Such endothelial cells produce cytokines. A method in accordance with the present invention comprises measurement of the amount of the cytokine IL-6, and another aspect of the present invention comprises measurement of the amount of the cytokine MCP-1. Preferably, although not required, the amount of cytokine produced is determined using immunological methods, such as ELISA assays. The methods of the present invention are not limited by the type of assay used to measure the amount of cytokine produced, and any methods known to those skilled in the art and later developed can be used to measure the amount of cytokines produced in response to the stimulating agent and to the compound having unknown activity.
Glycated albumin stimulates endothelial production of IL-6 and MCP-1. […] Because of the well established role of these cytokines in vascular diseases, screening for compounds that block AGE-induction of these cytokines provides a novel approach for identifying therapeutic agents that block AGE-induced inflammation in vivo.
Once the baseline response to the stimulating agent for the production of cytokines by the endothelial cells is established, thus comprising the control levels for the screening assay, the methods comprise addition of compounds having unknown activities. The effect of the compound on the baseline response is determined by comparing the amount of cytokine produced in the presence of the stimulating agent and the amount of cytokine produced in the presence of the stimulating agent and the compound of the present invention. In one method, compounds that have inhibitory effects on the inflammation of the cells in the presence of glycated albumin are then used as therapeutic agents. One or more compounds may be added to the screening assay. Combinations or mixtures of compounds can be added. Different amounts and formulations of the compounds are added to determine the effects on the screening assay. The screening assay also may be used to determine stimulatory compounds or compounds that have no effects in the assay.

IL-6 = test: Glycated albumin-stimulated endothelial cell production of cytokine IL-6 (ELISA); type: cell-based; conditions: read-out: % of inhibition of proinflammatory cytokine IL-6
Source text: as §1, with “Yet another aspect of the present invention includes an assay comprising endothelial cells that are stimulated by the addition of a glycated protein, the stimulating agent. The endothelial cells respond by producing specific cytokines.” left out, “The compound may have an inhibitory effect, a stimulatory effect, or no effect at all. Compounds for treatment of inflammation include those that have an inhibitory effect.” left out
Assays comprise endothelial cells that are stimulated in an inflammatory response by the presence of the glycated protein, glycated human serum albumin. […] Preferably, although not required, the amount of cytokine produced is determined using immunological methods, such as ELISA assays. […]

Compound: C/C(=C1\SC(=O)NC1=O)c1ccc(OCCOc2c(-c3ccc(F)cc3)n(C)c3ccccc3c2=O)cc1 [drawing 118]
inhibition at 7.9 µM (MCP-1; concentration 7.9 μM): 50%

Compound: C/C(=C1\SC(=O)NC1=O)c1ccc(OCCOc2c(-c3ccc(Cl)cc3)n(C)c3ccccc3c2=O)cc1
inhibition at 5 µM (IL-6; concentration 5 μM): 49%

Compound: C/C(=C1\SC(=O)NC1=O)c1ccc(OCCOc2c(-c3ccc(F)c(F)c3)n(C)c3ccccc3c2=O)cc1
inhibition at 4.4 µM (MCP-1; concentration 4.4 μM): 50%

Compound: C/C(=C1\SC(=O)NC1=O)c1ccc(OCCOc2c(-c3ccc(F)c(F)c3)n(C)c3ccccc3c2=O)c(F)c1
inhibition at 7 µM (MCP-1; concentration 7 μM): 50%

Compound: Cn1c(-c2ccc(Br)cc2)c(OCCOc2ccc(/C=C3/SC(=O)NC3=O)cc2)c(=O)c2ccccc21
inhibition at 5 µM (MCP-1): 44%

Compound: C/C(=C1\SC(=O)NC1=O)c1ccc(OCCOc2c(-c3ccc(F)cc3)n(C)c3ccccc3c2=O)cc1 [drawing 117]
inhibition at 4.64 µM (IL-6; concentration 4.64 μM): 50%

Compound: CCn1c(-c2ccc(F)cc2)c(OCCOc2ccc(/C(C)=C3/SC(=O)NC3=O)cc2)c(=O)c2ccccc21
inhibition at 6.5 µM (MCP-1; concentration 6.5 μM): 50%

Compound: C/C(=C1/SC(=O)NC1=O)c1ccc(OCCOc2c(-c3ccc(F)c(F)c3)n(C)c3ccccc3c2=O)c(Cl)c1
inhibition at 5 µM (MCP-1): 61%

melting point: 215 to 218 °C
Compound: CCCc1nn(C)c2c(=O)n(CCNc3ccc(/C(C)=C4\SC(=O)NC4=O)cc3)c(-c3ccc(OC)c(OC)c3)nc12 [Example 46, 5-[(E,Z)-1-(4-{2-[5-(3,4-Dimethoxyphenyl)-1-methyl-7-oxo-3-propyl-6,7-dihydro-1H-pyrazolo[4,3-d]pyrimidin-6-yl]ethylamino}phenyl)ethylidene]1,3-thiazolane-2,4-dione]

melting point: 205 to 206 °C
Compound: COc1cc(OC)c2c(=O)c(OCCOc3ccc(/C(C)=C4\SC(=O)NC4=O)cc3)c(-c3ccc(OC)c(OC)c3)oc2c1 [Example 1, 5-[-1-(4-{2-[2-(3,4-Dimethoxyphenyl)-5,7-dimethoxy-4-oxo-4h-3-chromenyloxy]ethoxy}phenyl)ethylidene]-1,3-thiazolane-2,4-dione]
